Assay results reported in ChEMBL document CHEMBL1201862, “PubChem BioAssay data set” (2004).
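Five compound concentrations were applied to cells in 96-well plates for 48 hours; endpoints were derived by simple linear interpolation of the resulting dose-response curve. Here, GI50 denotes the concentration required for 50% inhibition of growth.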 Active and inactive are the calls of the source. Rule as the data show it: active = GI50 up to about 1.1 µM and inactive = higher.

Legend:
Test in all cases: NCI tumour cell line growth inhibition, 48 h
SNB-19 = tested on: SNB-19
NCI-H460 = tested on: NCI-H460
786-0 = tested on: 786-0
LOX IMVI = tested on: LOX IMVI
SF-268 = tested on: SF-268
TK-10 = tested on: TK-10
UACC-62 = tested on: UACC-62
ACHN = tested on: ACHN
M14 = tested on: M14
SW-620 = tested on: SW-620
SNB-75 = tested on: SNB-75
SN12C = tested on: SN12C
HT-29 = tested on: HT-29
SK-OV-3 = tested on: SK-OV-3
HCT-15 = tested on: HCT-15
CAKI-1 = tested on: CAKI-1
SR = tested on: SR

Compound: NC(=S)N/N=C(/CC(=O)c1ccc([N+](=O)[O-])cc1)C(=O)Nc1ncc([N+](=O)[O-])s1
- GI50 (SNB-19): > 100 µM (inactive)
- GI50 (NCI-H460): > 100 µM (inactive)
- GI50 (786-0): > 100 µM (inactive)
- GI50 (LOX IMVI): 61.7 µM (inactive)
- GI50 (SF-268): > 100 µM (inactive)
- GI50 (TK-10): > 100 µM (inactive)
- GI50 (UACC-62): 52.7 µM (inactive)
- GI50 (ACHN): > 100 µM (inactive)
- GI50 (M14): > 100 µM (inactive)
- GI50 (SW-620): > 100 µM (inactive)
- GI50 (SNB-75): > 100 µM (inactive)
- GI50 (SN12C): > 100 µM (inactive)
- GI50 (HT-29): > 100 µM (inactive)

Compound: CC(C(=O)c1ccc(Cl)cc1)/C(=N/NC(=O)NN)C(=O)Nc1cccc(C(F)(F)F)c1 (configuration not stated)
- GI50 (SNB-19): > 100 µM (inactive)
- GI50 (NCI-H460): > 100 µM (inactive)
- GI50 (786-0): > 100 µM (inactive)
- GI50 (LOX IMVI): > 100 µM (inactive)
- GI50 (SF-268): > 100 µM (inactive)
- GI50 (TK-10): > 100 µM (inactive)
- GI50 (UACC-62): > 100 µM (inactive)
- GI50 (SK-OV-3): > 100 µM (inactive)
- GI50 (ACHN): > 100 µM (inactive)
- GI50 (HCT-15): > 100 µM
- GI50 (CAKI-1): > 100 µM (inactive)
- GI50 (M14): > 100 µM (inactive)
- GI50 (SW-620): > 100 µM (inactive)
- GI50 (SNB-75): > 100 µM (inactive)
- GI50 (SN12C): > 100 µM (inactive)
- GI50 (HT-29): > 100 µM (inactive)

Compound: CC(=O)C1C(=O)NC(=O)C1=O (configuration not stated)
- GI50 (SNB-19): > 100 µM (inactive)
- GI50 (NCI-H460): > 100 µM (inactive)
- GI50 (786-0): > 100 µM (inactive)
- GI50 (LOX IMVI): > 100 µM (inactive)
- GI50 (SF-268): > 100 µM (inactive)
- GI50 (TK-10): > 100 µM (inactive)
- GI50 (UACC-62): > 100 µM (inactive)
- GI50 (SK-OV-3): > 100 µM (inactive)
- GI50 (ACHN): > 100 µM (inactive)
- GI50 (HCT-15): > 100 µM
- GI50 (CAKI-1): > 100 µM (inactive)
- GI50 (M14): > 100 µM (inactive)
- GI50 (SW-620): 29.2 µM (inactive)
- GI50 (SNB-75): > 100 µM (inactive)
- GI50 (SN12C): > 100 µM (inactive)
- GI50 (HT-29): > 100 µM (inactive)

Compound: COc1ccc(/C=C(\Cl)c2ccc(OC)cc2)cc1
- GI50 (SNB-19): > 100 µM (inactive)
- GI50 (NCI-H460): > 100 µM (inactive)
- GI50 (786-0): > 100 µM (inactive)
- GI50 (LOX IMVI): > 100 µM (inactive)
- GI50 (SF-268): > 100 µM (inactive)
- GI50 (TK-10): > 100 µM (inactive)
- GI50 (UACC-62): 38.8 µM (inactive)
- GI50 (SK-OV-3): 0.325 µM (active)
- GI50 (ACHN): > 100 µM (inactive)
- GI50 (CAKI-1): > 100 µM (inactive)
- GI50 (SR): > 100 µM (inactive)
- GI50 (M14): > 100 µM (inactive)
- GI50 (SW-620): > 100 µM (inactive)
- GI50 (SNB-75): > 100 µM (inactive)
- GI50 (SN12C): > 100 µM (inactive)

Compound: O=C1C2=C(c3ccccc31)C(c1cccc(Cl)c1)NC(S)=N2 (configuration not stated)
- GI50 (SNB-19): > 100 µM (inactive)
- GI50 (NCI-H460): > 100 µM (inactive)
- GI50 (786-0): > 100 µM (inactive)
- GI50 (SF-268): > 100 µM (inactive)
- GI50 (TK-10): > 100 µM (inactive)
- GI50 (UACC-62): > 100 µM (inactive)
- GI50 (SK-OV-3): > 100 µM (inactive)
- GI50 (ACHN): 68.1 µM (inactive)
- GI50 (HCT-15): > 100 µM
- GI50 (CAKI-1): 75.2 µM (inactive)
- GI50 (M14): > 100 µM (inactive)
- GI50 (SW-620): > 100 µM (inactive)
- GI50 (SNB-75): 31.9 µM (inactive)
- GI50 (SN12C): > 100 µM (inactive)
- GI50 (HT-29): > 100 µM (inactive)

Compound: CC(C)N(C(=O)C1(C)CC1)C(C)C
- GI50 (SNB-19): > 100 µM (inactive)
- GI50 (786-0): > 100 µM (inactive)
- GI50 (SF-268): > 100 µM (inactive)
- GI50 (UACC-62): > 100 µM (inactive)
- GI50 (SK-OV-3): > 100 µM (inactive)
- GI50 (ACHN): > 100 µM (inactive)
- GI50 (HCT-15): > 100 µM
- GI50 (CAKI-1): > 100 µM (inactive)
- GI50 (M14): > 100 µM (inactive)
- GI50 (SW-620): > 100 µM (inactive)
- GI50 (SNB-75): > 100 µM (inactive)
- GI50 (SN12C): > 100 µM (inactive)
- GI50 (HT-29): > 100 µM (inactive)

Compound: C[P+]1(Cc2ccccc2)CCCC1
- GI50 (SNB-19): > 100 µM (inactive)
- GI50 (NCI-H460): > 100 µM (inactive)
- GI50 (786-0): > 100 µM (inactive)
- GI50 (LOX IMVI): > 100 µM (inactive)
- GI50 (TK-10): > 100 µM (inactive)
- GI50 (UACC-62): > 100 µM (inactive)
- GI50 (SK-OV-3): > 100 µM (inactive)
- GI50 (ACHN): > 100 µM (inactive)
- GI50 (HCT-15): > 100 µM
- GI50 (SR): > 100 µM (inactive)
- GI50 (M14): > 100 µM (inactive)
- GI50 (SW-620): > 100 µM (inactive)
- GI50 (SNB-75): > 100 µM (inactive)
- GI50 (SN12C): > 100 µM (inactive)
- GI50 (HT-29): > 100 µM (inactive)

Compound: CC1=CCC2(C#N)CCC1C2=O (configuration not stated)
- GI50 (SNB-19): > 100 µM (inactive)
- GI50 (NCI-H460): > 100 µM (inactive)
- GI50 (786-0): > 100 µM (inactive)
- GI50 (LOX IMVI): > 100 µM (inactive)
- GI50 (SF-268): > 100 µM (inactive)
- GI50 (TK-10): > 100 µM (inactive)
- GI50 (UACC-62): > 100 µM (inactive)
- GI50 (SK-OV-3): > 100 µM (inactive)
- GI50 (ACHN): > 100 µM (inactive)
- GI50 (HCT-15): > 100 µM
- GI50 (CAKI-1): > 100 µM (inactive)
- GI50 (SR): > 100 µM (inactive)
- GI50 (M14): > 100 µM (inactive)
- GI50 (SW-620): > 100 µM (inactive)
- GI50 (SN12C): > 100 µM (inactive)
- GI50 (HT-29): > 100 µM (inactive)

Compound: COC(=O)CC(=O)NCC1=CCC(=O)CC1
- GI50 (SNB-19): > 100 µM (inactive)
- GI50 (NCI-H460): > 100 µM (inactive)
- GI50 (786-0): > 100 µM (inactive)
- GI50 (LOX IMVI): > 100 µM (inactive)
- GI50 (SF-268): > 100 µM (inactive)
- GI50 (TK-10): > 100 µM (inactive)
- GI50 (UACC-62): > 100 µM (inactive)
- GI50 (SK-OV-3): > 100 µM (inactive)
- GI50 (HCT-15): > 100 µM
- GI50 (CAKI-1): > 100 µM (inactive)
- GI50 (M14): > 100 µM (inactive)
- GI50 (SW-620): > 100 µM (inactive)
- GI50 (SNB-75): > 100 µM (inactive)
- GI50 (SN12C): > 100 µM (inactive)
- GI50 (HT-29): > 100 µM (inactive)

Compound: COc1ccc(CCCN2c3ccccc3Sc3ccccc32)cc1
- GI50 (SNB-19): > 100 µM (inactive)
- GI50 (NCI-H460): 99.5 µM (inactive)
- GI50 (786-0): 35.1 µM (inactive)
- GI50 (LOX IMVI): 52.8 µM (inactive)
- GI50 (SF-268): > 100 µM (inactive)
- GI50 (TK-10): > 100 µM (inactive)
- GI50 (UACC-62): > 100 µM (inactive)
- GI50 (SK-OV-3): > 100 µM (inactive)
- GI50 (ACHN): > 100 µM (inactive)
- GI50 (HCT-15): 27.9 µM
- GI50 (CAKI-1): > 100 µM (inactive)
- GI50 (M14): > 100 µM (inactive)
- GI50 (SW-620): 22.8 µM (inactive)
- GI50 (SNB-75): > 100 µM (inactive)
- GI50 (SN12C): > 100 µM (inactive)
- GI50 (HT-29): 54.1 µM (inactive)

Compound: CC1=C[C@H]2C[C@@]3(C)O[C@@H]([C@]4(C)CC[C@H]([C@@H](C)C(=O)O)OO4)CC3C(C)(C)[C@H]2CC1 (some centres not stated)
- GI50 (SNB-19): 1.79 µM (inactive)
- GI50 (NCI-H460): 1.13 µM (inactive)
- GI50 (786-0): 3.15 µM (inactive)
- GI50 (LOX IMVI): 0.161 µM (active)
- GI50 (SF-268): 2.17 µM (inactive)
- GI50 (TK-10): 2.79 µM (inactive)
- GI50 (ACHN): 1.57 µM (inactive)
- GI50 (CAKI-1): 1.49 µM (inactive)
- GI50 (M14): 1.44 µM (inactive)
- GI50 (SW-620): 0.259 µM (active)
- GI50 (SNB-75): 1.08 µM (active)
- GI50 (SN12C): 1.39 µM (inactive)
- GI50 (HT-29): 0.479 µM (active)

Compound: CC(C(=O)Oc1ccc2ccccc2c1-c1c(O)ccc2ccccc12)c1ccccc1 (configuration not stated)
- GI50 (SNB-19): 14.7 µM (inactive)
- GI50 (NCI-H460): 13.7 µM (inactive)
- GI50 (786-0): 14.8 µM (inactive)
- GI50 (SF-268): > 10 µM (inactive)
- GI50 (TK-10): 17.6 µM (inactive)
- GI50 (UACC-62): 13 µM (inactive)
- GI50 (SK-OV-3): 15.4 µM (inactive)
- GI50 (ACHN): 13.7 µM (inactive)
- GI50 (HCT-15): 12.5 µM
- GI50 (CAKI-1): 11.5 µM (inactive)
- GI50 (M14): 13.2 µM (inactive)
- GI50 (SW-620): 15.2 µM (inactive)
- GI50 (SNB-75): 9.79 µM (inactive)
- GI50 (SN12C): 14.7 µM (inactive)
- GI50 (HT-29): 14.8 µM (inactive)

Compound: CC1=C(C(=O)Nc2ccc([N+](=O)[O-])cc2)C(c2ccco2)C(C(=O)Nc2ccc([N+](=O)[O-])cc2)=C(C)N1
- GI50 (SNB-19): 27.1 µM (inactive)
- GI50 (NCI-H460): 20.1 µM (inactive)
- GI50 (786-0): 31.8 µM (inactive)
- GI50 (LOX IMVI): 19.6 µM (inactive)
- GI50 (SF-268): 21.3 µM (inactive)
- GI50 (TK-10): 12.3 µM (inactive)
- GI50 (SK-OV-3): 9.35 µM (inactive)
- GI50 (ACHN): 4.4 µM (inactive)
- GI50 (CAKI-1): 20.3 µM (inactive)
- GI50 (M14): 21.9 µM (inactive)
- GI50 (SW-620): 24.4 µM (inactive)
- GI50 (SNB-75): 2.72 µM (inactive)
- GI50 (SN12C): 16.3 µM (inactive)
- GI50 (HT-29): 25.8 µM (inactive)
